This note sets out measurements from publication PMC9102668, “Highly Cytotoxic Osmium(II) Compounds and Their Ruthenium(II) Analogues Targeting Ovarian Carcinoma Cell Lines and Evading Cisplatin Resistance Mechanisms” (International Journal of Molecular Sciences, 2022).

What all share (type): cell-based
In experiment [1] the test system is A549. The experiment can be described thus: MTT assay (CellTiter96), cytotoxic activity. The settings on record: lung carcinoma cell line, 48 h incubation.
Experiment [2] has as its system SKOV3. The experiment can be described thus: MTT assay (CellTiter96), cytotoxic activity. The settings on record: 48 h incubation. Background: Formazan colour is commonly taken as a measure of viable cells.
In experiment [3] the test system is SKOV3cis. The experiment can be described thus: MTT assay (CellTiter96), cytotoxic activity.
Experiment [4] deals with A2780cis. The experiment can be described thus: MTT assay (CellTiter96), cytotoxic activity.
Experiment [5] deals with A2780. The experiment can be described thus: MTT assay (CellTiter96), cytotoxic activity. To be noted: 48 h incubation.
Experiment [6] has as its system A2780 and SKOV3 cells and the resistant subcultures. As to the kind of experiment: Cell cycle distribution, PI staining and FACS. The settings on record: 48 h treatment, 24 h recovery. As for the experimental part: The reduced viability under treatment, as measured by the MTT assay, can be a result of cell cycle arrest and/or increased cell death. To further evaluate the anticancer properties of the ruthenium(II) complexes we measured cell cycle distribution and cell death rates after treatment with Ru3 or Ru14. After seeding and attaching, the cells were treated for 48 h with different concentrations of substances. For cell cycle distribution measurements, a recovery phase of 24 h was added after treatment, and cells were fixed and stained with PI for the DNA content. Arresting of cells in specific cell cycle phases gives them time to resolve the DNA damage (G1 arrest) or is an initial step to apoptosis if DNA damage is too severe (G2/M arrest).
(§1) To examine cell cycle distribution and cell death rates, 30,000 cells were seeded in 12 well plates. After attaching for 24 h cells were treated with Cisplatin, Ru3 and Ru14 for 48 h at various concentrations for cell cycle and cell death analyses. For cell death analysis, immediately after treatment cells were stained with Propidium Iodid (PI) (1 µg/mL) on ice and the number of dead cells was measured using BD Canto II. For cell cycle distribution, cells recovered for 24 h after treatment. Afterwards, cells were fixed in ice-cold, 50% EtOH for 24 h at −20 °C. For DNA staining, fixed cells were incubated in PBS with 0.05% Triton-X, 0.1 µg/mL RNaseA and 50 µg/mL PI for 1 h at 4 °C in dark. DNA content was measured using BD Canto II.

In experiment [7] the test system is A2780 cells. As to the kind of experiment: Cell death rate, PI staining of live cells (FACS). To be noted: A2780 and SKOV3 cells, 20 µM and 30 µM, 48 h. The method, then:
For cell death rate analysis, live cells were stained with PI immediately after 48 h treatment. […] Furthermore, resistant cells show much lower Cisplatin-induced cell death rates (Figure 7). […] In A2780 cells, both compounds trigger similar cell death rates in parental and Cisplatin-resistant cells. Cisplatin-resistant SKOV3 are much more sensitive to both ruthenium(II) complexes than the parental counterpart, with a median of 3.3-fold higher sensitivity.
as §1

The subject of experiment [8] is MCF10A. As to the kind of experiment: IC50 on non-cancerous cell cultures. The settings on record: non-cancerous breast epithelial cell line.

A word on the IC50: it is the point on the concentration scale where inhibition reaches its midpoint. A low value points to greater potency. Turning to “[(η^6-p-cymene)Ru(1-(3-ethoxyphenyl)-3-(methylthio)-3-thioxo-prop-1-en-1-olate-O,S)] [Ru14]”, the IC50 was 2.7 µM in experiment [1]; 3.5 µM in experiment [2]; 5.1 µM in experiment [3] (Cisplatin resistant SKOV3, MTT assay, 48 h incubation); 2.9 µM in experiment [4] (Cisplatin resistant A2780, MTT assay, 48 h incubation); 1.9 µM in experiment [5]; 16.7 µM in experiment [8]. The “RF SKOV3 (resistance factor)” value in experiment [3] (SKOV3cis vs SKOV3) is recorded as 1.5. In addition, the “RF A2780 (resistance factor)” value in experiment [4] (A2780cis vs A2780) is reported as 1.5. Besides, the “effect on cell cycle distribution” value in experiment [6] was “no or only a minor effect on cell cycle distribution”. Also, the “capacity to induce cell death in vitro” value in experiment [7] is “high capacity to induce cell death”.
